# Results published in patent publication US9409884B2 (Rigel Pharmaceuticals, Inc., priority 2012, dated 2016).
# Biological target: AMPK
# Experiment: AMPK activation, enzyme-linked immunosorbent assay
# Type: biochemical
# Details: Table 13, compounds of Table 6
# Procedure, shortened: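 Read-out: ELISA, used to detect compound-driven activation of AMPK.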
row,SMILES,EC50 [nM]
1,CS(=O)(=O)c1ccc(CN2CCN(C(=O)c3ccc4oc(C(=O)NC5CCN(Cc6ccc(C#N)cc6)CC5)cc4c3)CC2)cc1F [Compound 6-102],< 100
2,"Cc1cc(CN2CCN(C(=O)c3ccc4oc(C(=O)NC5CCN(Cc6ccc(C#N)cc6)CC5)cc4c3)CC2)ccc1S(C)(=O)=O [Compound 6-103, N-(1-(4-cyanobenzyl)piperidin-4-yl)-5-(4-(3-methyl-4-(methylsulfonyl)benzyl)piperazine-1-carbonyl) benzofuran-2-carboxamide]",< 100
3,"N#Cc1ccc(CN2CCC(NC(=O)c3cc4cc(C(=O)N5CCN(Cc6ccc(S(=O)(=O)C7CC7)cc6)CC5)ccc4o3)CC2)cc1 [Compound 6-104, N-(1-(4-cyanobenzyl)piperidin-4-yl)-5-(4-(4-(cyclopropylsulfonyl)benzyI)piperazine-1-carbonyl) benzofuran-2-carboxamide]",< 100
4,"CS(=O)(=O)c1ccc(CN2CCN(C(=O)c3ccc4oc(C(=O)NC5CCN(Cc6ccc(C#N)cc6)CC5)cc4c3)CC2)cc1C(F)(F)F [Compound 6-105, N-(1-(4-cyanobenzyl)piperidin-4-yl)-5-(4-(4-(methylsulfonyl)-3-(trifluoromethyl)benzyl)piperazine-1-carbonyl) benzofuran-2-carboxamide]",< 100
5,"COc1ccc(N2CCN(C(=O)c3ccc4oc(C(=O)NC5CCN(Cc6ccc(C#N)cc6)CC5)cc4c3)CC2)cc1 [Compound 6-106, N-(1-(4-cyanobenzyl)piperidin-4-yl)-5-(4-(4-methoxyphenyl)piperazine-1-carbonyl)benzofuran-2-carboxamide]",< 100
6,"N#Cc1ccc(CN2CCC(NC(=O)c3cc4cc(C(=O)N5CCN(c6ccc(C#N)cc6)CC5)ccc4o3)CC2)cc1 [Compound 6-107, N-(1-(4-cyanobenzyl)piperidin-4-yl)-5-(4-(4-cyanophenyl)piperazine-1-carbonyl)benzofuran-2-carboxamide]",< 100
7,"CC(C)S(=O)(=O)c1ccc(N2CCN(C(=O)c3ccc4oc(C(=O)NC5CCN(Cc6ccc(C#N)cc6)CC5)cc4c3)CC2)cc1 [Compound 6-108, N-(1-(4-cyanobenzyl)piperidin-4-yl)-5-(4-(4-(isopropylsulfonyl)phenyl)piperazine-1-carbonyl) benzofuran-2-carboxamide]",< 100
8,"N#Cc1ccc(CN2CCC(NC(=O)c3cc4cc(C(=O)N5CCN(c6ccc(C(=O)C7CC7)cc6)CC5)ccc4o3)CC2)cc1 [Compound 6-109, N-(1-(4-cyanobenzyl)piperidin-4-yl)-5-(4-(4-(cyclopropanecarbonyl)phenyl)piperazine-1-carbonyl)benzofuran-2-carboxamide]",< 100
9,"CN(C)C(=O)c1ccc(N2CCN(C(=O)c3ccc4oc(C(=O)NC5CCN(Cc6ccc(C#N)cc6)CC5)cc4c3)CC2)cc1 [Compound 6-110, N-(1-(4-cyanobenzyl)piperidin-4-yl)-5-(4-(4-(dimethylcarbamoyl)phenyl)piperazine-1-carbonyl) benzofuran-2-carboxamide]",100 to 1000
10,"CS(=O)(=O)c1ccc(CN2CCN(C(=O)c3ccc4oc(C(=O)NC5CCN(Cc6ccc(C#N)cc6)CC5)cc4c3)CC2)cc1OC(F)(F)F [Compound 6-111, N-(1-(4-cyanobenzyl)piperidin-4-yl)-5-(4-(4-(methylsulfonyl)-3-(trifluoromethoxy)benzyl)piperazine-1-carbonyl) benzofuran-2-carboxamide]",100 to 1000
11,"CS(=O)(=O)c1ccc(CN2CCN(C(=O)c3ccc4oc(C(=O)NC5CCN(Cc6ccc(C#N)cc6)CC5)cc4c3)CC2)cc1Cl [Compound 6-112, 5-(4-(3-chloro-4-(methylsulfonyl)benzyl)piperazine-1-carbonyl)-N-(1-(4-cyanobenzyl)piperidin-4-yl)benzofuran-2-carboxamide]",< 100
12,"CS(=O)(=O)c1ccc(O[C@H]2CCN(C(=O)c3ccc4oc(C(=O)NC5CCN(Cc6ccc(C#N)cc6)CC5)cc4c3)C[C@@H]2F)cc1 [Compound 6-113, N-(1-(4-cyanobenzyl)piperidin-4-yl)-5-((3,4-trans)-3-fluoro-4-(4-(methylsulfonyl)phenoxy)piperidine-1-carbonyl) benzofuran-2-carboxamide]",< 100
13,"COc1ccc(CN2CCC(NC(=O)c3cc4cc(C(=O)N5CC[C@H](Oc6ccc(S(C)(=O)=O)cc6)[C@@H](F)C5)ccc4o3)CC2)cc1 [Compound 6-114, 5-((3,4-trans)-3-fluoro-4-(4-(methylsulfonyl)phenoxy)piperidine-1-carbonyl)-N-(1-(4-methoxybenzyl)piperidin-4-yl) benzofuran-2-carboxamide]",< 100
14,"CS(=O)(=O)c1ccc(O[C@H]2CCN(C(=O)c3ccc4oc(C(=O)NC5CCN(Cc6ccc(OC(F)(F)F)cc6)CC5)cc4c3)C[C@@H]2F)cc1 [Compound 6-115, 5-((3,4-trans)-3-fluoro-4-(4-(methylsulfonyl)phenoxy)piperidine-1-carbonyl)-N-(1-(4-(trifluoromethoxy)benzyl)piperidin-4-yl)benzofuran-2-carboxamide]",< 100
15,"N#Cc1ccc(CN2CCC(NC(=O)c3cc4cc(C(=O)N5CCN(c6ccc(C(F)(F)F)cc6)CC5)ccc4o3)CC2)cc1 [Compound 6-116, N-(1-(4-cyanobenzyl)piperidin-4-yl)-5-(4-(4-(trifluoromethyl)phenyl)piperazine-1-carbonyl) benzofuran-2-carboxamide]",< 100
16,"N#Cc1ccc(CN2CCC(NC(=O)c3cc4cc(C(=O)N5CCN(c6cc(C(F)(F)F)cc(C(F)(F)F)c6)CC5)ccc4o3)CC2)cc1 [Compound 6-117, 5-(4-(3,5-bis(trifluoromethyl)phenyl)piperazine-1-carbonyl)-N-(1-(4-cyanobenzyl)piperidin-4-yl)benzofuran-2-carboxamide]",1000 to 10000
17,"N#Cc1ccc(CN2CCC(NC(=O)c3cc4cc(C(=O)N5CCN(c6ccc(Cl)cc6Cl)CC5)ccc4o3)CC2)cc1 [Compound 6-118, N-(1-(4-cyanobenzyl)piperidin-4-yl)-5-(4-(2,4-dichlorophenyl)piperazine-1-carbonyl)benzofuran-2-carboxamide]",< 100
18,"COc1ccc(CN2CCC(NC(=O)c3cc4cc(C(=O)N5CCN(c6ccc(C(F)(F)F)cc6)CC5)ccc4o3)CC2)cc1 [Compound 6-119, N-(1-(4-methoxybenzyl)piperidin-4-yl)-5-(4-(4-(trifluoromethyl)phenyl)piperazine-1-carbonyl) benzofuran-2-carboxamide]",< 100
19,"COc1ccc(CN2CCC(NC(=O)c3cc4cc(C(=O)N5CCN(c6cc(C(F)(F)F)cc(C(F)(F)F)c6)CC5)ccc4o3)CC2)cc1 [Compound 6-120, 5-(4-(3,5-bis(trifluoromethyl)phenyl)piperazine-1-carbonyl)-N-(1-(4-methoxybenzyl)piperidin-4-yl)benzofuran-2-carboxamide]",< 100
20,"COc1ccc(CN2CCC(NC(=O)c3cc4cc(C(=O)N5CCN(c6ccc(Cl)cc6Cl)CC5)ccc4o3)CC2)cc1 [Compound 6-121, 5-(4-(2,4-dichlorophcnyl)piperazine-1-carbonyl)-N-(1-(4-methoxybenzyl)piperidin-4-yl)benzofuran-2-carboxamide]",< 100
21,"N#Cc1ccc(CN2CCC(NC(=O)c3cc4cc(C(=O)N5CCC(S(=O)(=O)c6ccc(F)cc6)CC5)ccc4o3)CC2)cc1 [Compound 6-122, N-(1-(4-cyanobenzyl)piperidin-4-yl)-5-(4-(4-fluorophenylsulfonyl)piperidine-1-carbonyl) benzofuran-2-carboxamide]",100 to 1000
22,"CS(=O)(=O)c1ccc(CN2CCN(C(=O)c3ccc4oc(C(=O)NC5CCN(Cc6ccc(C#N)cc6)CC5)cc4c3)CC2)cc1 [Compound 6-123, N-(1-(4-cyanobenzyl)piperidin-4-yl)-5-(4-(4-(methylsulfonyl)benzyl)piperazine-1-carbonyl) benzofuran-2-carboxamide]",< 100
23,"N#Cc1ccc(CN2CCC(NC(=O)c3cc4cc(C(=O)N5CCC(Oc6ccc(S(=O)(=O)C(F)(F)F)cc6)CC5)ccc4o3)CC2)cc1 [Compound 6-124, N-(1-(4-cyanobenzyl)piperidin-4-yl)-5-(4-(4-(trifluoromethylsulfonyl)phenoxy)piperidine-1-carbonyl)benzofuran-2-carboxamide]",< 100
24,"COc1ccc(-c2cnn(C3CCN(C(=O)c4ccc5oc(C(=O)NC6CCN(Cc7ccc(C#N)cc7)CC6)cc5c4)CC3)c2)cc1 [Compound 6-125, N-(1-(4-cyanobenzyl)piperidin-4-yl)-5-(4-(4-(4-methoxyphenyl)-1H-pyrazol-1-yl)piperidine-1-carbonyl)benzofuran-2-carboxamide]",< 100
25,"Cc1cc2oc(C(=O)NC3CCN(Cc4ccc(C#N)cc4)CC3)cc2cc1NC(=O)C1CCN(c2ccc(C#N)cc2)CC1 [Compound 6-126, N-(2-(1-(4-cyanobenzyl)piperidin-4-ylcarbamoyl)-6-methylbenzofuran-5-yl)-1-(4-cyanophenyl)piperidine-4-carboxamide]",< 100
26,"N#Cc1ccc(CN2CCC(NC(=O)c3cc4cc(C(=O)N5CCN(Cc6ccc(C(F)(F)F)cc6)CC5)ccc4o3)CC2)cc1 [Compound 6-127, N-(1-(4-cyanobenzyl)piperidin-4-yl)-5-(4-(4-(trifluoromethyl)benzyl)piperazine-1-carbonyl) benzofuran-2-carboxamide]",< 100
27,"N#Cc1ccc(CN2CCC(NC(=O)c3cc4cc(C(=O)N5CCN(Cc6ccc(S(=O)(=O)C(F)(F)F)cc6)CC5)ccc4o3)CC2)cc1 [Compound 6-128, N-(1-(4-cyanobenzyl)piperidin-4-yl)-5-(4-(4-(trifluoromethylsulfonyl)benzyl)piperazine-1-carbonyl)benzofuran-2-carboxamide]",< 100
28,"COc1ccc(CN2CCC(NC(=O)c3cc4cc(C(=O)N5CCN(Cc6ccc(C(F)(F)F)cc6)CC5)ccc4o3)CC2)cc1F [Compound 6-129, N-(1-(3-fluoro-4-methoxybenzyl)piperidin-4-yl)-5-(4-(4-(trifluoromethyl)benzyl)piperazine-1-carbonyl) benzofuran-2-carboxamide]",< 100
29,"COc1ccc(CN2CCC(NC(=O)c3cc4cc(C(=O)N5CCN(Cc6ccc(S(C)(=O)=O)c(C)c6)CC5)ccc4o3)CC2)cc1F [Compound 6-130, N-(1-(3-fluoro-4-methoxybenzyl)piperidin-4-yl)-5-(4-(3-methyl-4-(methylsulfonyl)benzyl)piperazine-1-carbonyl) benzofuran-2-carboxamide]",< 100
